According to patent US8409618B2, “Odor-reducing quinone compounds” (Kimberly-Clark Worldwide, Inc., priority 2002, dated 2013):

Key:
Parameters in all cases: species or system human
[1] = Urine odor and secondary odor panel ranking, dye powders in urine, 8 millimolar (Example 7); details: for Average Urine Odor Ranking (with statistical corrections), Avg. Score: ignoring statistical anomalies; for Secondary Odor Ranking: scale 1 to 5, 5 extremely unpleasant, individual panelists' scores
Method: (§1) Qualitative odor reduction was also assessed against common odors, such as garlic and urine. Specifically, panelists assessed odorant-containing jars by carefully unscrewing, and then raising the lid of each jar in a controlled manner, such that the odor was not diluted by the ambient air. The jars were wrapped and coded to ensure that the sample identity was unknown.
The effectiveness of various dyes in reducing urine odor was compared. […] Human female urine was initially collected and pooled by a nurse on staff at Kimberly-Clark Corporation. The pooled urine was added to mason jars in 50-milliliter aliquots using an automated pipette aid. Powders of the aforementioned dyes (commercially available from Sigma-Aldrich Chemical Co., Inc. of St. Louis, Mo. and Noveon Hilton Davis, Inc. of Cincinnati, Ohio) were weighed and placed into the mason jars containing 50 milliliters of urine so that the final concentration of the dye powder was 8 millimolar (equivalent to 0.5 wt. %). The mason jars were placed in an incubator overnight at 37° C.
To aid in the assessment of the dyes, the mason jars were divided into two groups for a morning assessment, and the best of both groups were compared in an afternoon assessment (after a total of 24 hours). In addition to ranking the jars from least to most malodorous (on a scale from 1 to 7, with 7 being the most malodors), panelists were also asked to judge whether there were secondary (non-urine) odors present and, if so, the extent that the secondary odors were unpleasant (on a scale from 1 to 5, with 5 being extremely unpleasant).
In this assessment, panelists were given instructions to rank the least malodorous jar as “1” and the most malodorous jar as “10,” remaining free to rank the other jars between 2-9.

[2] = Urine odor panel ranking, dye-coated Poise pads without SN-AK (Example 8); details: for Secondary Odor Ranking: scale of 1-5; for Average Urine Odor Ranking, Avg. Score / overall urine odor control performance (panel): final pooled assessment; for urine odor reduction (panel), assessment within set: overnight 37° C.; for overall urine odor control performance (panel): top-sheet coating
Method: as §1
Specifically, Acid Green 25, Acid Green 41, Acid Blue 129, and D&C Green No. 5 were tested. Powders of the aforementioned dyes (commercially available from Sigma-Aldrich Chemical Co., Inc. of St. Louis, Mo. and Noveon Hilton Davis, Inc. of Cincinnati, Ohio) were dissolved in water so that the concentration of the dye was 8 millimolar (equivalent to 0.5 wt. %). Samples of tissue wrap were created by cutting 9″×6″ sheets from a roll of tissue (1 ply white cellulose wrap sheet having a basis weight of 16.6 grams per square meter) were weighed, oven-dried overnight at 90° C., and weighed again the next day to calculate the amount of residual water in each wrap. The wraps were then dipped into a respective dye solution and hung to dry overnight, after which they were weighed again. The treated wraps were then rinsed in deionized water to remove any unbound dye and hung again to dry overnight. After weighing the treated wraps, they were once again oven-dried overnight at 90° C. and weighed to determine the dry add-on percentages ([…]). The add-on percentage for each sample was approximately 1.6 wt. %.
Two different sets of Poise® pads (commercially available from Kimberly-Clark Corp.) were tested. The first set of dye-coated tissue wraps (without SN-AK) was inserted around the pledgette area of the Poise® pads. The Poise® pads were cut open and the tissue wrap surrounding the pledgette carefully removed and replaced with dye-coated tissue wrap. The second set of dye-coated tissue wraps (without SN-AK) used dye coatings on the top of the pad (rather than inside). These pads were constructed by spreading the solution over the top of each pad. To prevent the superabsorbent area of the pad from soaking up the solution, the pads were cut open prior to coating and a layer of plastic wrap was placed between the top layer of the pad and the superabsorbent core. A pad that was cut open, but coated only with water on top, was used as a control. All pads were dried at room temperature overnight before placing them in mason jars for testing. For control purposes, a Poise® pad was also tested that was cut open, but retained its original tissue wrap. In addition, Serenity® Night & Day™ incontinence pads, which are commercially available from SCA Incontinence Care of Eddystone, Pa. and said to employ OdaSorb Plus™ to reduce odor, were also used for comparison.
Fresh human female urine was then pooled, and 50-milliliter aliquots were applied to the pads using a pipette. The mason jars were placed in a 37° C. incubator overnight for assessment the next day. […] Panelists were again asked to rank any secondary odors for unpleasantness on a scale of 1-5.

[3] = Urine odor panel ranking, dye powders in urine, 8 millimolar (Example 5); details: 8 millimolar dye in urine
Method: as §1, with “unknown. The effectiveness of various quinone dyes in reducing urine odor was compared. Human female urine was initially collected and pooled by a nurse on staff at Kimberly-Clark Corporation.” for “unknown.”

[4] = First Grouping, morning assessment, 8 millimolar, 7 most malodorous
[5] = First Grouping, scale 1 to 7, 7 most malodorous
[6] = Second Grouping, morning assessment, 8 millimolar, higher = more malodorous
[7] = After 24 Hours, top performers of both groupings, 1 least, 10 most malodorous
[8] = after 24 hours, top performers of both groupings
[9] = after 24 hours, top performers, 1 least, 10 most malodorous
[10] = 1st set (tissue-wrap coating), After 30 Hours
[11] = 2nd set (top-sheet coating), After 30 Hours
[12] = first set of pads (dye-coated tissue wrap around pledgette)
[13] = second set of pads (dye coating on top of pad)
[14] = After 6 Hours, 10 most, 1 least malodorous
[15] = After 24 Hours, 10 most, 1 least malodorous

## 1,2 naphthaquinone-2-sulfonic acid potassium salt
[1]; [4]
  Urine Odor Ranking (number of panelists): ranking 2: 1 number of panelists
  Urine Odor Ranking (number of panelists): ranking 3: 2 number of panelists
  Urine Odor Ranking (number of panelists): ranking 4: 1 number of panelists
  Urine Odor Ranking (number of panelists): ranking 7: 1 number of panelists
[1]; [5]
  Average Urine Odor Ranking, Avg. Score: 3.8
[1]; first grouping
  secondary (non-urine) odor (panel): an unpleasant secondary smell was found to be present
  urine odor reduction (panel): effectively reduced urine odor

## O=C1C=C(S(=O)(=O)[O-])C(=O)c2ccccc21.[K+] [1,4 Naphthaquinone, 1,4 naphthaquinone-2-sulfonic acid potassium salt]
[1]; Second Grouping
  Average Urine Odor Ranking, Avg. Score: 1.8
  secondary (non-urine) odor (panel): unpleasant secondary odor
[1]; [6]
  Urine Odor Ranking (number of panelists): ranking 1: 2 number of panelists
  Urine Odor Ranking (number of panelists): ranking 2: 2 number of panelists
  Urine Odor Ranking (number of panelists): ranking 3: 1 number of panelists

## Nc1cc(S(=O)(=O)[O-])c(O)c2c1C(=O)c1c(O)c(S(=O)(=O)[O-])cc(N)c1C2=O.[Na+].[Na+] [Acid Blue 45]
[1]; Second Grouping
  Average Urine Odor Ranking, Avg. Score: 3.4
[1]; [6]
  Urine Odor Ranking (number of panelists): ranking 2: 1 number of panelists
  Urine Odor Ranking (number of panelists): ranking 3: 2 number of panelists
  Urine Odor Ranking (number of panelists): ranking 4: 1 number of panelists
  Urine Odor Ranking (number of panelists): ranking 5: 1 number of panelists

## Cc1ccc(Nc2ccc(Nc3ccc(C)cc3S(=O)(=O)[O-])c3c2C(=O)c2ccccc2C3=O)c(S(=O)(=O)[O-])c1.[Na+].[Na+] [Acid Green 25]
[1]; [7]
  Urine Odor Ranking (number of panelists): ranking 1: 3 number of panelists
  Urine Odor Ranking (number of panelists): ranking 2: 1 number of panelists
  Urine Odor Ranking (number of panelists): ranking 10: 1 number of panelists
[1]; [4]
  Urine Odor Ranking (number of panelists): ranking 1: 3 number of panelists
  Urine Odor Ranking (number of panelists): ranking 2: 1 number of panelists
  Urine Odor Ranking (number of panelists): ranking 6: 1 number of panelists
[1]; [5]
  Average Urine Odor Ranking, Avg. Score: 2.2
[1]; Second Grouping
  Average Urine Odor Ranking, Avg. Score: 4.4
[1]; [8]
  urine odor reduction (panel): achieved the best odor reduction
[1]; [9]
  Average Urine Odor Ranking, Avg. Score: 3.0
[1]; after 24 hours, top performers
  Average Urine Odor Ranking (with statistical corrections), Avg. Score: 1.3
[1]; first grouping
  secondary (non-urine) odor (panel): not found to be unpleasant by most panelists
  urine odor reduction (panel): functioned effectively to reduce odor
[2]; [10]
  Urine Odor Ranking (number of panelists): ranking 3: 1 number of panelists
  Urine Odor Ranking (number of panelists): ranking 4: 1 number of panelists
  Urine Odor Ranking (number of panelists): ranking 5: 1 number of panelists
  Urine Odor Ranking (number of panelists): ranking 6: 1 number of panelists
  Secondary Odor Ranking: 4
[2]; 1st set (tissue-wrap coating)
  Average Urine Odor Ranking, Avg. Score: 4.50
[2]; [11]
  Urine Odor Ranking (number of panelists): ranking 1: 3 number of panelists
  Urine Odor Ranking (number of panelists): ranking 7: 1 number of panelists
[2]; 2nd set (top-sheet coating)
  Average Urine Odor Ranking, Avg. Score: 2.50
[2]; [12]
  urine odor reduction (panel), assessment within set: performed best for the first set of pads
[2]; [13]
  urine odor reduction (panel), assessment within set: performed best for the second set of pads
[2]
  overall urine odor control performance (panel): best performer overall

## CCCCc1ccc(Nc2ccc(Nc3ccc(CCCC)cc3S(=O)(=O)[O-])c3c2C(=O)c2ccccc2C3=O)c(S(=O)(=O)[O-])c1.[Na+].[Na+] [Acid Green 27]
[3]; 6 and 24 hours
  urine malodor reduction (panel): functioned effectively in reducing urine malodor
[3]; [14]
  Avg. Ranking (odor): 4.4
  Ranking (number of panelists): ranking 4: 3 number of panelists
  Ranking (number of panelists): ranking 5: 2 number of panelists
[3]; [15]
  Avg. Ranking (odor): 4.5
  Ranking (number of panelists): ranking 1: 1 number of panelists
  Ranking (number of panelists): ranking 3: 2 number of panelists
  Ranking (number of panelists): ranking 7: 3 number of panelists
[1]; [7]
  Urine Odor Ranking (number of panelists): ranking 2: 1 number of panelists
  Urine Odor Ranking (number of panelists): ranking 8: 2 number of panelists
  Urine Odor Ranking (number of panelists): ranking 9: 1 number of panelists
  Urine Odor Ranking (number of panelists): ranking 10: 1 number of panelists
[1]; After 24 Hours
  Secondary Odor Ranking: 4
[1]; Second Grouping
  Average Urine Odor Ranking, Avg. Score: 3.6
  Secondary Odor Ranking: 2
[1]; [6]
  Urine Odor Ranking (number of panelists): ranking 2: 2 number of panelists
  Urine Odor Ranking (number of panelists): ranking 4: 1 number of panelists
  Urine Odor Ranking (number of panelists): ranking 5: 2 number of panelists
[1]; [9]
  Average Urine Odor Ranking, Avg. Score: 6.4
[1]; after 24 hours, top performers
  Average Urine Odor Ranking (with statistical corrections), Avg. Score: 8.8

## Cc1ccc(Nc2ccc(Nc3ccc(C)cc3S(=O)(=O)[O-])c3c2C(=O)c2c(O)ccc(O)c2C3=O)c(S(=O)(=O)[O-])c1.[Na+].[Na+] [Acid Green 41]
[1]; [7]
  Urine Odor Ranking (number of panelists): ranking 1: 1 number of panelists
  Urine Odor Ranking (number of panelists): ranking 2: 2 number of panelists
  Urine Odor Ranking (number of panelists): ranking 3: 1 number of panelists
  Urine Odor Ranking (number of panelists): ranking 7: 1 number of panelists
[1]; [4]
  Urine Odor Ranking (number of panelists): ranking 1: 1 number of panelists
  Urine Odor Ranking (number of panelists): ranking 2: 2 number of panelists
  Urine Odor Ranking (number of panelists): ranking 3: 1 number of panelists
  Urine Odor Ranking (number of panelists): ranking 4: 1 number of panelists
[1]; First Grouping
  Secondary Odor Ranking: 1
[1]; [5]
  Average Urine Odor Ranking, Avg. Score: 2.4
[1]; [8]
  urine odor reduction (panel): achieved the best odor reduction
[1]; [9]
  Average Urine Odor Ranking, Avg. Score: 3.0
[1]; after 24 hours, top performers
  Average Urine Odor Ranking (with statistical corrections), Avg. Score: 2.0
[1]; first grouping
  urine odor reduction (panel): functioned effectively to reduce odor
[2]; 1st set (tissue-wrap coating)
  Average Urine Odor Ranking, Avg. Score: 4.50
[2]; [11]
  Urine Odor Ranking (number of panelists): ranking 2: 2 number of panelists
  Urine Odor Ranking (number of panelists): ranking 3: 1 number of panelists
  Urine Odor Ranking (number of panelists): ranking 4: 1 number of panelists
  Secondary Odor Ranking: 1
[2]; 2nd set (top-sheet coating)
  Average Urine Odor Ranking, Avg. Score: 2.75
[2]; [12]
  urine odor reduction (panel), assessment within set: performed best for the first set of pads
[2]; [13]
  urine odor reduction (panel), assessment within set: performed best for the second set of pads
[2]
  overall urine odor control performance (panel): best performer overall, followed by Acid Green 41

## CCN(Cc1cccc(S(=O)(=O)[O-])c1)c1ccc(C(=C2C=CC(=[N+](CC)Cc3cccc(S(=O)(=O)[O-])c3)C=C2)c2ccccc2S(=O)(=O)[O-])cc1.[Na+].[Na+] [FD&C Blue No. 1, reference compound]
[1]; [4]
  Urine Odor Ranking (number of panelists): ranking 4: 1 number of panelists
  Urine Odor Ranking (number of panelists): ranking 5: 4 number of panelists
[1]; First Grouping
  Secondary Odor Ranking: 3
[1]; [5]
  Average Urine Odor Ranking, Avg. Score: 4.8
